± gives the expanded uncertainty stated by the source.
How the values were obtained:
[1] = Crystal; DTA
[2] = Molar enthalpy of transition or fusion; conditions: Crystal; DSC

## CC(=O)Oc1ccc(C2CC(=O)c3c(OC(C)=O)cc(OC(C)=O)cc3O2)cc1 (configuration not stated) [4',5,7-triacetoxyflavanone]
[1]
  Normal melting temperature: 73.80 ± 0.46 °C
[2]
  Molar enthalpy of transition or fusion: 20.8 ± 1.1 kJ/mol
